System: LG0567-F671-PDC complex spheroids viability
Assay: Anticancer human tumor LG0567-F671-PDC patient-derived lung adenocarcinoma cell line growth inhibition [RAS]
Conditions: for IC50: curve of first compound; for viability, T/C: stronger effect = lower value
Summary of the method: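 Multi-cell-type spheroids: tumor cells plus HUVEC endothelial cells and mesenchymal stem cells. RAS-pathway inhibitors were combined with targeted agents, each dosed in half-log steps down from clinical Cmax, or from 10 microM when Cmax was unknown.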

[1] = second compound 0.000949 µM, first compound 0.0316 µM
[2] = second compound 0.000949 µM, first compound 0.1 µM
[3] = second compound 0.000949 µM, first compound 0.316 µM
[4] = second compound 0.000949 µM, first compound 1 µM
[5] = second compound 0.003 µM, first compound 0.0316 µM
[6] = second compound 0.003 µM, first compound 0.1 µM
[7] = second compound 0.003 µM, first compound 0.316 µM
[8] = second compound 0.003 µM, first compound 1 µM
[9] = second compound 0.00949 µM, first compound 0.0316 µM
[10] = second compound 0.00949 µM, first compound 0.1 µM
[11] = second compound 0.00949 µM, first compound 0.316 µM
[12] = second compound 0.00949 µM, first compound 1 µM
[13] = second compound 0.03 µM, first compound 0.0316 µM
[14] = second compound 0.03 µM, first compound 0.1 µM
[15] = second compound 0.03 µM, first compound 0.316 µM
[16] = second compound 0.03 µM, first compound 1 µM
[17] = second compound 0.0949 µM, first compound 0.0316 µM
[18] = second compound 0.0949 µM, first compound 0.1 µM
[19] = second compound 0.0949 µM, first compound 0.316 µM
[20] = second compound 0.0949 µM, first compound 1 µM
[21] = second compound 0.3 µM, first compound 0.0316 µM
[22] = second compound 0.3 µM, first compound 0.1 µM
[23] = second compound 0.3 µM, first compound 0.316 µM
[24] = second compound 0.3 µM, first compound 1 µM
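Note: spheroids exposed to compound for seven days before readout.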
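Throughout, for IC50: luminescence signal used as a proxy for viable cells.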

Structure (SMILES): CC(Nc1ccc2c(c1)OCCn1cc(N3C(=O)OCC3C(F)F)nc1-2)C(N)=O (stereo unspecified) + CCn1c(-c2cccnc2C(C)OC)c2c3cc(ccc31)N1CCOC(CC(NC(=O)C(C(C)C)N(C)C(=O)C3(F)CCN(C(=O)C#CC(C)(C)N(C)C)CC3)C(=O)N3CCCC(N3)C(=O)OCC(C)(C)C2)C1
- IC50 (second compound 0.000949 µM): < 31.6 nM
- IC50 (second compound 0.003 µM): < 31.6 nM
- IC50 (second compound 0.00949 µM): < 31.6 nM
- IC50 (second compound 0.03 µM): < 31.6 nM
- IC50 (second compound 0.0949 µM): < 31.6 nM
- IC50 (second compound 0.3 µM): < 31.6 nM
- viability, T/C [1]: 10.7%
- viability, T/C [2]: 8.72%
- viability, T/C [3]: 8.3%
- viability, T/C [4]: 7.21%
- viability, T/C (second compound 0.000949 µM, first compound 3.16 µM): 5.43%
- viability, T/C (second compound 0.000949 µM, first compound 10 µM): 4.31%
- viability, T/C [5]: 9.17%
- viability, T/C [6]: 8.19%
- viability, T/C [7]: 7.67%
- viability, T/C [8]: 6.15%
- viability, T/C (second compound 0.003 µM, first compound 3.16 µM): 6.22%
- viability, T/C (second compound 0.003 µM, first compound 10 µM): 4.37%
- viability, T/C [9]: 9.41%
- viability, T/C [10]: 8.93%
- viability, T/C [11]: 9.05%
- viability, T/C [12]: 6.09%
- viability, T/C (second compound 0.00949 µM, first compound 3.16 µM): 5.36%
- viability, T/C (second compound 0.00949 µM, first compound 10 µM): 4.24%
- viability, T/C [13]: 8.43%
- viability, T/C [14]: 7.85%
- viability, T/C [15]: 6.83%
- viability, T/C [16]: 5.59%
- viability, T/C (second compound 0.03 µM, first compound 3.16 µM): 4.63%
- viability, T/C (second compound 0.03 µM, first compound 10 µM): 3.89%
- viability, T/C [17]: 7.47%
- viability, T/C [18]: 6.11%
- viability, T/C [19]: 5.42%
- viability, T/C [20]: 4.93%
- viability, T/C (second compound 0.0949 µM, first compound 3.16 µM): 3.8%
- viability, T/C (second compound 0.0949 µM, first compound 10 µM): 2.62%
- viability, T/C [21]: 7.06%
- viability, T/C [22]: 4.74%
- viability, T/C [23]: 5.86%
- viability, T/C [24]: 3.71%
- viability, T/C (second compound 0.3 µM, first compound 3.16 µM): 2.8%
- viability, T/C (second compound 0.3 µM, first compound 10 µM): 1.69%

Structure (SMILES): CC(C)n1nc(-c2ccc3oc(N)nc3c2)c2c(N)ncnc21 + C=CC(=O)N1CCN(c2nc(OCC3CCCN3C)nc3c(F)c(-c4nc(N)cc(C)c4C(F)(F)F)c(Cl)cc23)C(C)C1
- IC50 (second compound 0.00316 µM): < 0.316 nM
- IC50 (second compound 0.01 µM): < 0.316 nM
- IC50 (second compound 0.0316 µM): < 0.316 nM
- IC50 (second compound 0.1 µM): < 0.316 nM
- IC50 (second compound 0.316 µM): < 0.316 nM
- IC50 (second compound 1 µM): < 0.316 nM
- viability, T/C (second compound 0.00316 µM, first compound 0.000316 µM): 13.7%
- viability, T/C (second compound 0.00316 µM, first compound 0.001 µM): 17.2%
- viability, T/C (second compound 0.00316 µM, first compound 0.00316 µM): 11.4%
- viability, T/C (second compound 0.00316 µM, first compound 0.01 µM): 9.86%
- viability, T/C (second compound 0.00316 µM, first compound 0.0316 µM): 7.75%
- viability, T/C (second compound 0.00316 µM, first compound 0.1 µM): 6.24%
- viability, T/C (second compound 0.01 µM, first compound 0.000316 µM): 12.6%
- viability, T/C (second compound 0.01 µM, first compound 0.001 µM): 10.8%
- viability, T/C (second compound 0.01 µM, first compound 0.00316 µM): 10.5%
- viability, T/C (second compound 0.01 µM, first compound 0.01 µM): 7.96%
- viability, T/C (second compound 0.01 µM, first compound 0.0316 µM): 7.27%
- viability, T/C (second compound 0.01 µM, first compound 0.1 µM): 4.67%
- viability, T/C (second compound 0.0316 µM, first compound 0.000316 µM): 12.2%
- viability, T/C (second compound 0.0316 µM, first compound 0.001 µM): 11.5%
- viability, T/C (second compound 0.0316 µM, first compound 0.00316 µM): 9.25%
- viability, T/C (second compound 0.0316 µM, first compound 0.01 µM): 10.8%
- viability, T/C (second compound 0.0316 µM, first compound 0.0316 µM): 6.75%
- viability, T/C (second compound 0.0316 µM, first compound 0.1 µM): 4.77%
- viability, T/C (second compound 0.1 µM, first compound 0.000316 µM): 11.1%
- viability, T/C (second compound 0.1 µM, first compound 0.001 µM): 10.7%
- viability, T/C (second compound 0.1 µM, first compound 0.00316 µM): 10.9%
- viability, T/C (second compound 0.1 µM, first compound 0.01 µM): 8.59%
- viability, T/C (second compound 0.1 µM, first compound 0.0316 µM): 7.47%
- viability, T/C (second compound 0.1 µM, first compound 0.1 µM): 4.81%
- viability, T/C (second compound 0.316 µM, first compound 0.000316 µM): 11.6%
- viability, T/C (second compound 0.316 µM, first compound 0.001 µM): 10.8%
- viability, T/C (second compound 0.316 µM, first compound 0.00316 µM): 9.88%
- viability, T/C (second compound 0.316 µM, first compound 0.01 µM): 7.87%
- viability, T/C (second compound 0.316 µM, first compound 0.0316 µM): 6.07%
- viability, T/C (second compound 0.316 µM, first compound 0.1 µM): 4.55%
- viability, T/C (second compound 1 µM, first compound 0.000316 µM): 14.2%
- viability, T/C (second compound 1 µM, first compound 0.001 µM): 11.4%
- viability, T/C (second compound 1 µM, first compound 0.00316 µM): 14.3%
- viability, T/C (second compound 1 µM, first compound 0.01 µM): 10.9%
- viability, T/C (second compound 1 µM, first compound 0.0316 µM): 7.1%
- viability, T/C (second compound 1 µM, first compound 0.1 µM): 5.83%

Structure (SMILES): C=CC(=O)Nc1cc(Nc2nccc(-c3cn(C)c4ccccc34)n2)c(OC)cc1N(C)CCN(C)C + CCn1c(-c2cc(N3CCN(C)CC3)cnc2C(C)OC)c2c3cc(ccc31)-c1csc(n1)CC(NC(=O)C1CC1C)C(=O)N1CCCC(N1)C(=O)OCC(C)(C)C2
- IC50 (second compound 0.000949 µM): < 3.16 nM
- IC50 (second compound 0.003 µM): < 3.16 nM
- IC50 (second compound 0.00949 µM): < 3.16 nM
- IC50 (second compound 0.03 µM): < 3.16 nM
- IC50 (second compound 0.0949 µM): < 3.16 nM
- IC50 (second compound 0.3 µM): < 3.16 nM
- viability, T/C (second compound 0.000949 µM, first compound 0.00316 µM): 24.1%
- viability, T/C (second compound 0.000949 µM, first compound 0.01 µM): 19.9%
- viability, T/C [1]: 17.7%
- viability, T/C [2]: 11.7%
- viability, T/C [3]: 5.93%
- viability, T/C [4]: 2.95%
- viability, T/C (second compound 0.003 µM, first compound 0.00316 µM): 11.5%
- viability, T/C (second compound 0.003 µM, first compound 0.01 µM): 10.2%
- viability, T/C [5]: 8.59%
- viability, T/C [6]: 4.71%
- viability, T/C [7]: 3.14%
- viability, T/C [8]: 1.73%
- viability, T/C (second compound 0.00949 µM, first compound 0.00316 µM): 6.67%
- viability, T/C (second compound 0.00949 µM, first compound 0.01 µM): 6.47%
- viability, T/C [9]: 4.89%
- viability, T/C [10]: 3.67%
- viability, T/C [11]: 1.84%
- viability, T/C [12]: 1.07%
- viability, T/C (second compound 0.03 µM, first compound 0.00316 µM): 3.85%
- viability, T/C (second compound 0.03 µM, first compound 0.01 µM): 3.87%
- viability, T/C [13]: 11.8%
- viability, T/C [14]: 2.59%
- viability, T/C [15]: 1.49%
- viability, T/C [16]: 0.76%
- viability, T/C (second compound 0.0949 µM, first compound 0.00316 µM): 3.44%
- viability, T/C (second compound 0.0949 µM, first compound 0.01 µM): 2.65%
- viability, T/C [17]: 2.81%
- viability, T/C [18]: 2.03%
- viability, T/C [19]: 1.32%
- viability, T/C [20]: 0.84%
- viability, T/C (second compound 0.3 µM, first compound 0.00316 µM): 2.71%
- viability, T/C (second compound 0.3 µM, first compound 0.01 µM): 2.18%
- viability, T/C [21]: 2.37%
- viability, T/C [22]: 1.85%
- viability, T/C [23]: 1.11%
- viability, T/C [24]: 0.63%

Source: PubChem BioAssay AID2060889 (Molecular Pharmacology Branch, DTP, NCI, 2025)
